Legend:
surinam grass [1] = assay: Test C pre-/postemergence herbicide test; assay type: in vivo, Brachiaria decumbens; settings: Preemergence
Description: Seeds of plant species selected from blackgrass (Alopecurus myosuroides), ryegrass, Italian (Italian ryegrass, Lolium multiflorum), wheat (winter wheat, Triticum aestivum), galium (catchweed bedstraw, Galium aparine), corn (Zea mays), crabgrass, large (large crabgrass, Digitaria sanguinalis), foxtail, giant (giant foxtail, Setaria faberii), johnsongrass (Sorghum halepense), lambsquarters (Chenopodium album), morningglory (Ipomoea coccinea), nutsedge, yellow (yellow nutsedge, Cyperus esculentus), pigweed (Amaranthus retroflexus), ragweed (common ragweed, Ambrosia elatior), soybean (Glycine max), barnyardgrass (Echinochloa crus-galli), oilseed rape (Brassica napus), waterhemp (common waterhemp, Amaranthus rudis), kochia (Kochia scoparia), oat, wild (wild oat, Avena fatua), surinam grass (Brachiaria decumbens), foxtail, green (green foxtail, Setaria viridis), goosegrass (Eleusine indica), bromegrass, downy (downy bromegrass, Bromus tectorum), nightshade (eastern black nightshade, Solanum ptycanthum), cocklebur (common cocklebur, Xanthium strumarium), cupgrass, woolly (woolly cupgrass, Eriochloa villosa), bermudagrass (Cynodon dactylon), sunflower, (common oilseed sunflower, Helianthus annuus), Russian thistle (Salsola kali) and velvetleaf (Abutilon theophrasti) were planted into a blend of loam soil and sand and treated preemergence with test chemicals formulated in a non-phytotoxic solvent mixture which included a surfactant. At the same time, plants selected from these crop and weed species and also barley (winter barley, Hordeum vulgare), […]), chickweed (common chickweed, Stellaria media), deadnettle (henbit deadnettle, Lamium amplexicaule), and canarygrass (littleseed canarygrass, Phalaris minor) were planted in pots containing Redi-Earth® planting medium (Scotts Company, 14111 Scottslawn Road, Marysville, Ohio 43041) comprising spaghnum peat moss, vermiculite, wetting agent and starter nutrients and treated with postemergence applications of test chemicals formulated in the same manner. Plants ranged in height from 2 to 18 cm (1- to 4-leaf stage) for postemergence treatments. Treated plants and controls were maintained in a greenhouse for 13 to 15 days, after which time all species were compared to controls and visually evaluated. Plant response ratings, summarized in Table C, are based on a scale of 0 to 100 where 0 is no effect and 100 is complete control. A dash (-) response means no test result.

surinam grass [2] = assay: Test E preemergence herbicide test; assay type: in vivo, Brachiaria decumbens; design: key: 0 = no effect, 100 = complete control
Description: (§1) Seeds of plant species selected from corn (Zea mays), soybean (Glycine max), velvetleaf (Abutilon theophrasti), lambsquarters (Chenopodium album), wild poinsettia (Euphorbia heterophylla), pigweed, palmer (palmer pigweed, Amaranthus palmeri), waterhemp (common waterhemp, Amaranthus rudis), surinam grass (Brachiaria decumbens), crabgrass, large (large crabgrass, Digitaria sanguinalis), crabgrass, Brazil (Brazilian crabgrass, Digitaria horizontalis), panicum, fall (fall panicum, Panicum dichotomiflorum), foxtail, giant (giant foxtail, Setaria faberii), foxtail, green (green foxtail, Setaria viridis), goosegrass (Eleusine indica), johnsongrass (Sorghum halepense), ragweed (common ragweed, Ambrosia elatior), barnyardgrass (Echinochloa crus-galli), sandbur (southern sandbur, Cenchrus echinatus), arrowleaf […] rhombifolia), ryegrass, Italian (Italian ryegrass, Lolium multiflorum), dayflower, VA (Virginia dayflower, Commelina virginica), field bindweed (Convolvulus arvensis), morningglory (Ipomoea coccinea), nightshade (eastern black nightshade, Solanum ptycanthum), kochia (Kochia scoparia), nutsedge, yellow (yellow nutsedge, Cyperus esculentus), cocklebur (common cocklebur, Xanthium strumarium), smartweed (ladysthumb smartweed, Polygonum Persicaria) and beggarticks (hairy beggarticks, Bidens pilosa), were planted into a silt loam soil and treated preemergence with test chemicals formulated in a non-phytotoxic solvent mixture which included a surfactant. Treated plants and controls were maintained in a greenhouse for 21 days, after which time all species were compared to controls and visually evaluated. Plant response ratings, summarized in Table E, are based on a scale of 0 to 100 where 0 is no effect and 100 is complete control. A dash (-) response means no test result.

panicum, fall = assay: Test E preemergence herbicide test; assay type: in vivo, Panicum dichotomiflorum; design: key: 0 = no effect, 100 = complete control
Description: as §1

goosegrass = assay: Test C pre-/postemergence herbicide test; assay type: in vivo, Eleusine indica; settings: Preemergence
Method in brief: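 Pre- and postemergence greenhouse screen. Preemergence treatment went onto freshly planted seeds in loam–sand soil; postemergence treatment went onto plants 2 to 18 cm tall at the 1- to 4-leaf stage in sphagnum peat/vermiculite medium. Scoring at 13 to 15 days used a 0–100 control scale.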

foxtail, giant = assay: Test E preemergence herbicide test; assay type: in vivo, Setaria faberii; design: key: 0 = no effect, 100 = complete control
Description: as §1

kochia = assay: Test D pre-/postemergence herbicide test; assay type: in vivo, Kochia scoparia; settings: for Plant response rating: Kochia, scale 0 to 100; for Plant response rating, Kochia: scale 0 to 100 (0 no effect, 100 complete control)
Method in brief: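 Seeds sown in silt loam were sprayed preemergence with test chemicals in a non-phytotoxic solvent mixture with surfactant. Postemergence plants grown in peat/vermiculite medium were treated at 2–18 cm (1- to 4-leaf stage). After 7 to 21 days in a controlled environment, injury was rated visually versus controls, 0 (no effect) to 100 (complete control).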

[3] = 125 g ai/ha, scale 0 to 100 (0 no effect, 100 complete control)

## O=C1NCC(c2ccc(Cl)c(Cl)c2)C1C(=O)Nc1ccccc1F (racemic) [Compound 14]
Surinam grass [1]; 62 g ai/ha, scale 0 to 100
  Plant response rating, Surinam Grass: 80
Surinam grass [1]; [3]
  Plant response rating, Surinam Grass: 95
Surinam grass [2]; 16 g ai/ha
  Plant response rating, Surinam Grass: 0
Surinam grass [2]; 31 g ai/ha
  Plant response rating, Surinam Grass: 0
Surinam grass [2]; 62 g ai/ha
  Plant response rating, Surinam Grass: 0
Surinam grass [2]; 125 g ai/ha
  Plant response rating, Surinam Grass: 20
Surinam grass [2]; 250 g ai/ha
  Plant response rating, Surinam Grass: 60
panicum, fall; 16 g ai/ha
  Plant response rating, Panicum, Fall: 0
panicum, fall; 31 g ai/ha
  Plant response rating, Panicum, Fall: 0
panicum, fall; 62 g ai/ha
  Plant response rating, Panicum, Fall: 0
panicum, fall; 250 g ai/ha
  Plant response rating, Panicum, Fall: 40
goosegrass; 62 g ai/ha, scale 0 to 100
  Plant response rating, Goosegrass: 0
goosegrass; [3]
  Plant response rating, Goosegrass: 0
goosegrass; 31 g ai/ha, scale 0 to 100 (0 no effect, 100 complete control)
  Goosegrass plant response rating: 0
foxtail, giant; 16 g ai/ha
  Plant response rating, Foxtail, Giant: 0
foxtail, giant; 31 g ai/ha
  Plant response rating, Foxtail, Giant: 0
foxtail, giant; 62 g ai/ha
  Plant response rating, Foxtail, Giant: 0
foxtail, giant; 125 g ai/ha
  Plant response rating, Foxtail, Giant: 10
foxtail, giant; 250 g ai/ha
  Plant response rating, Foxtail, Giant: 90

## O=C1NCC(c2ccc(C(F)(F)F)cc2)C1C(=O)Nc1cccc(F)c1F (racemic) [Compound 202]
kochia; Postemergence, 31 g ai/ha
  Plant response rating: 70
kochia; Postemergence, 62 g ai/ha
  Plant response rating: 70
kochia; Postemergence, 125 g ai/ha
  Plant response rating: 75
kochia; Postemergence, 250 g ai/ha
  Plant response rating: 75
kochia; Preemergence, 62 g ai/ha
  Plant response rating, Kochia: 85
kochia; Preemergence, 31 g ai/ha
  Plant response rating, Kochia: 85
kochia; Preemergence, 125 g ai/ha
  Plant response rating: 85
kochia; Preemergence, 250 g ai/ha
  Plant response rating: 85
Surinam grass [2]; 31 g ai/ha
  Plant response rating, Surinam Grass: 20
Surinam grass [2]; 125 g ai/ha
  Plant response rating, Surinam Grass: 65
Surinam grass [2]; 250 g ai/ha
  Plant response rating, Surinam Grass: 95
panicum, fall; 31 g ai/ha
  Plant response rating, Panicum, Fall: 0
panicum, fall; 62 g ai/ha
  Plant response rating, Panicum, Fall: 0
panicum, fall; 125 g ai/ha
  Plant response rating, Panicum, Fall: 50
panicum, fall; 250 g ai/ha
  Plant response rating, Panicum, Fall: 85
foxtail, giant; 31 g ai/ha
  Plant response rating, Foxtail, Giant: 35
foxtail, giant; 62 g ai/ha
  Plant response rating, Foxtail, Giant: 50
foxtail, giant; 125 g ai/ha
  Plant response rating, Foxtail, Giant: 95
foxtail, giant; 250 g ai/ha
  Plant response rating, Foxtail, Giant: 98

## O=C1NCC(c2ccc(OC(F)F)cc2)C1C(=O)Nc1cccc(F)c1F (racemic) [Compound 350]
Surinam grass [2]; 31 g ai/ha
  Plant response rating, Surinam Grass: 0
Surinam grass [2]; 62 g ai/ha
  Plant response rating, Surinam Grass: 0
Surinam grass [2]; 125 g ai/ha
  Plant response rating, Surinam Grass: 50
Surinam grass [2]; 250 g ai/ha
  Plant response rating, Surinam Grass: 65
panicum, fall; 31 g ai/ha
  Plant response rating, Panicum, Fall: 0
panicum, fall; 62 g ai/ha
  Plant response rating, Panicum, Fall: 0
panicum, fall; 125 g ai/ha
  Plant response rating, Panicum, Fall: 0
panicum, fall; 250 g ai/ha
  Plant response rating, Panicum, Fall: 0
foxtail, giant; 31 g ai/ha
  Plant response rating, Foxtail, Giant: 0
foxtail, giant; 62 g ai/ha
  Plant response rating, Foxtail, Giant: 20
foxtail, giant; 125 g ai/ha
  Plant response rating, Foxtail, Giant: 50
foxtail, giant; 250 g ai/ha
  Plant response rating, Foxtail, Giant: 80

## O=C1NCC(c2ccc(C(F)(F)F)cc2)C1C(=O)Nc1cccc(F)c1F (stereo not drawn) [Compound 80, N-(2,3-difluorophenyl)-2-oxo-4-[4-(trifluoromethyl)phenyl]-3-pyrrolidinecarboxamide]
kochia; Postemergence, 31 g ai/ha
  Plant response rating: 65
kochia; Postemergence, 62 g ai/ha
  Plant response rating: 75
kochia; Postemergence, 125 g ai/ha
  Plant response rating: 70
kochia; Postemergence, 250 g ai/ha
  Plant response rating: 75
kochia; Preemergence, 62 g ai/ha
  Plant response rating, Kochia: 35
kochia; Preemergence, 31 g ai/ha
  Plant response rating, Kochia: 15
kochia; Preemergence, 125 g ai/ha
  Plant response rating: 70
kochia; Preemergence, 250 g ai/ha
  Plant response rating: 75
Surinam grass [2]; 16 g ai/ha
  Plant response rating, Surinam Grass: 30
Surinam grass [2]; 31 g ai/ha
  Plant response rating, Surinam Grass: 40
Surinam grass [2]; 62 g ai/ha
  Plant response rating, Surinam Grass: 50
Surinam grass [2]; 125 g ai/ha
  Plant response rating, Surinam Grass: 60
Surinam grass [2]; 250 g ai/ha
  Plant response rating, Surinam Grass: 70
panicum, fall; 16 g ai/ha
  Plant response rating, Panicum, Fall: 0
panicum, fall; 31 g ai/ha
  Plant response rating, Panicum, Fall: 0
panicum, fall; 62 g ai/ha
  Plant response rating, Panicum, Fall: 0
panicum, fall; 125 g ai/ha
  Plant response rating, Panicum, Fall: 0
panicum, fall; 250 g ai/ha
  Plant response rating, Panicum, Fall: 0
foxtail, giant; 16 g ai/ha
  Plant response rating, Foxtail, Giant: 0
foxtail, giant; 31 g ai/ha
  Plant response rating, Foxtail, Giant: 65
foxtail, giant; 62 g ai/ha
  Plant response rating, Foxtail, Giant: 75
foxtail, giant; 125 g ai/ha
  Plant response rating, Foxtail, Giant: 80
foxtail, giant; 250 g ai/ha
  Plant response rating, Foxtail, Giant: 90

## O=C1NC[C@H](c2cccc(C(F)(F)F)c2)[C@H]1C(=O)Nc1ccccc1F [Compound 204, (3R,4S)—N-(2-fluorophenyl)-2-oxo-4-[3-(trifluoromethyl)phenyl]-3-pyrrolidinecarboxamide]
kochia; Preemergence, 62 g ai/ha
  Plant response rating, Kochia: 45
kochia; Preemergence, 125 g ai/ha
  Plant response rating, Kochia: 15
kochia; Preemergence, 31 g ai/ha
  Plant response rating, Kochia: 20
kochia; Preemergence, 250 g ai/ha
  Plant response rating: 70
Surinam grass [2]; 31 g ai/ha
  Plant response rating, Surinam Grass: 35
Surinam grass [2]; 62 g ai/ha
  Plant response rating, Surinam Grass: 60
Surinam grass [2]; 125 g ai/ha
  Plant response rating, Surinam Grass: 98
Surinam grass [2]; 250 g ai/ha
  Plant response rating, Surinam Grass: 95
panicum, fall; 31 g ai/ha
  Plant response rating, Panicum, Fall: 0
panicum, fall; 62 g ai/ha
  Plant response rating, Panicum, Fall: 0
panicum, fall; 125 g ai/ha
  Plant response rating, Panicum, Fall: 75
panicum, fall; 250 g ai/ha
  Plant response rating, Panicum, Fall: 75
foxtail, giant; 31 g ai/ha
  Plant response rating, Foxtail, Giant: 50
foxtail, giant; 62 g ai/ha
  Plant response rating, Foxtail, Giant: 95
foxtail, giant; 125 g ai/ha
  Plant response rating, Foxtail, Giant: 95
foxtail, giant; 250 g ai/ha
  Plant response rating, Foxtail, Giant: 98

## O=C1NC[C@H](c2cccc(C(F)(F)F)c2)[C@H]1C(=O)Nc1cccc(F)c1F [Compound 206]
kochia; Preemergence, 62 g ai/ha
  Plant response rating, Kochia: 60
kochia; Preemergence, 125 g ai/ha
  Plant response rating, Kochia: 70
kochia; Preemergence, 31 g ai/ha
  Plant response rating, Kochia: 45
kochia; Preemergence, 250 g ai/ha
  Plant response rating: 80
Surinam grass [2]; 31 g ai/ha
  Plant response rating, Surinam Grass: 50
Surinam grass [2]; 62 g ai/ha
  Plant response rating, Surinam Grass: 95
Surinam grass [2]; 125 g ai/ha
  Plant response rating, Surinam Grass: 85
Surinam grass [2]; 250 g ai/ha
  Plant response rating, Surinam Grass: 98
panicum, fall; 31 g ai/ha
  Plant response rating, Panicum, Fall: 75
panicum, fall; 62 g ai/ha
  Plant response rating, Panicum, Fall: 98
panicum, fall; 125 g ai/ha
  Plant response rating, Panicum, Fall: 98
panicum, fall; 250 g ai/ha
  Plant response rating, Panicum, Fall: 98
foxtail, giant; 31 g ai/ha
  Plant response rating, Foxtail, Giant: 90
foxtail, giant; 62 g ai/ha
  Plant response rating, Foxtail, Giant: 98
foxtail, giant; 125 g ai/ha
  Plant response rating, Foxtail, Giant: 98
foxtail, giant; 250 g ai/ha
  Plant response rating, Foxtail, Giant: 98

Reference: US10294202B2, “Pyrrolidinones as herbicides” (FMC Corporation, priority 2013, dated 2019)
